Activity calls are given as the source filed them. The rule behind the calls is not given here.
What was measured:
[1] = target: T1, Metabotropic glutamate receptor 3 (Homo sapiens, UniProt Q14832); experiment: Antagonist activity at recombinant human mGlu3 receptor expressed in hamster AV12 cells assessed as inhibition of DCG-4-inhibited forskolin-stimulated cAMP formation up to 25 uM after 20 mins by HTRF assay relative to control; format: functional, cell-based
Target sequence in this assay (Q14832 23-879 limits assumed): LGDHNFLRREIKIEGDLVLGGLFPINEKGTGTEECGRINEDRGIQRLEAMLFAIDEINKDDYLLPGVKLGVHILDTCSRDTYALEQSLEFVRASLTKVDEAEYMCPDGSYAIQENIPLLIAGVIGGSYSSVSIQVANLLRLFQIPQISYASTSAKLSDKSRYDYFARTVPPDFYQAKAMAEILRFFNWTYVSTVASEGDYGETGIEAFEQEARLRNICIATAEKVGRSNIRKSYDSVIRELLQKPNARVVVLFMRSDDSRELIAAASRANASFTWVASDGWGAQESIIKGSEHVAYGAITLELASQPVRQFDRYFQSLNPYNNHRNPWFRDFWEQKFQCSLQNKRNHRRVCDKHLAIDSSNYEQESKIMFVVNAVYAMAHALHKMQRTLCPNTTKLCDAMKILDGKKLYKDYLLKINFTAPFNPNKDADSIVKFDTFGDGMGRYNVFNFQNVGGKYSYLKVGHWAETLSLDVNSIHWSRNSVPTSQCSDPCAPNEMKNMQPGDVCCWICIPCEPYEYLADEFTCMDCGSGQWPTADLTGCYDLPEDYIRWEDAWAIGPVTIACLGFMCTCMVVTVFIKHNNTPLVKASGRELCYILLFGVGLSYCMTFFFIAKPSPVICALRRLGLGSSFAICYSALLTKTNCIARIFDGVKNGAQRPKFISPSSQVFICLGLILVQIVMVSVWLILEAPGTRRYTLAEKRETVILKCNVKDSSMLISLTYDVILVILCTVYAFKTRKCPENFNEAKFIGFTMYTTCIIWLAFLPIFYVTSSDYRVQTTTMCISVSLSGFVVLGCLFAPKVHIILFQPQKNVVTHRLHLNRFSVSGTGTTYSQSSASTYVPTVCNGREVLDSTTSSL

[2] = target: T1, Metabotropic glutamate receptor 3; experiment: Antagonist activity at recombinant human mGlu3 receptor expressed in hamster AV12 cells co-expressing human EAAT1 assessed as reduction of DCG-4-inhibited forskolin-stimulated cAMP formation after 20 mins by HTRF assay; format: functional, cell-based
[3] = Antidepressant activity in ip dosed NIH Swiss Webster mouse assessed as reduction in immobility time administered 30 mins prior to evaluation measured on the last 4 mins of the 6 mins observation time by forced swim test; format: functional, organism-based
[4] = Antidepressant activity in ip dosed NIH Swiss Webster mouse assessed as reduction in immobility time administered 30 mins prior to evaluation measured on the last 4 mins of the 6 mins observation time by forced swim test realtive to control; format: functional, organism-based
[5] = target: T2, Metabotropic glutamate receptor 2 (Homo sapiens, UniProt Q14416); experiment: Displacement of [3H]-LY459477 from human mGlu2 receptor expressed in hamster AV12 cell membranes co-expressing human EAAT1 after 90 mins by liquid scintillation counting method
Target sequence in this assay (Q14416 whole entry): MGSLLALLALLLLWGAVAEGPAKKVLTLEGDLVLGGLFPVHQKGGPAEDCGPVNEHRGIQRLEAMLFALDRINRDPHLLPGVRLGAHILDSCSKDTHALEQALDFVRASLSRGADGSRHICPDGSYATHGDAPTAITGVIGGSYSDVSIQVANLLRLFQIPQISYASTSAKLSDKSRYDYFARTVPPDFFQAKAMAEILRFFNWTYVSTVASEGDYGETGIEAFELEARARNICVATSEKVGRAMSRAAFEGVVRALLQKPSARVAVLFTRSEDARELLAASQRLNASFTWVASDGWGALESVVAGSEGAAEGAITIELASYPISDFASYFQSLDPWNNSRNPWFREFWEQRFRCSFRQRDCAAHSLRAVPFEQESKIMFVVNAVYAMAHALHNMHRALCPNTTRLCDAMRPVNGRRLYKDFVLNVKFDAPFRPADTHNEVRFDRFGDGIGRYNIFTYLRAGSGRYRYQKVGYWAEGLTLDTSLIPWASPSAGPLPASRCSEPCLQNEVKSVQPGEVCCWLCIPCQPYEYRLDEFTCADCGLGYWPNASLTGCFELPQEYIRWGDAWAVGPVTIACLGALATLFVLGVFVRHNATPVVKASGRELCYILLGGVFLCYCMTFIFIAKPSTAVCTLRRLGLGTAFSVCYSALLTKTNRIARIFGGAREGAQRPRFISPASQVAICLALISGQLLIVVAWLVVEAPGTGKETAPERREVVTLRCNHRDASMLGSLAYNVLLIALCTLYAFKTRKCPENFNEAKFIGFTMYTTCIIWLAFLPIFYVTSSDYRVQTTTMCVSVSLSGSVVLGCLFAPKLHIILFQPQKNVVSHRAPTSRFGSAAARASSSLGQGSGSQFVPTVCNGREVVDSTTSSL

[6] = target: T2, Metabotropic glutamate receptor 2; experiment: Antagonist activity at recombinant human mGlu2 receptor expressed in hamster AV12 cells assessed as inhibition of DCG-4-inhibited forskolin-stimulated cAMP formation up to 25 uM after 20 min by HTRF assay relative to control; format: functional, cell-based
Target sequence in this assay (Q14416 19-872 limits assumed): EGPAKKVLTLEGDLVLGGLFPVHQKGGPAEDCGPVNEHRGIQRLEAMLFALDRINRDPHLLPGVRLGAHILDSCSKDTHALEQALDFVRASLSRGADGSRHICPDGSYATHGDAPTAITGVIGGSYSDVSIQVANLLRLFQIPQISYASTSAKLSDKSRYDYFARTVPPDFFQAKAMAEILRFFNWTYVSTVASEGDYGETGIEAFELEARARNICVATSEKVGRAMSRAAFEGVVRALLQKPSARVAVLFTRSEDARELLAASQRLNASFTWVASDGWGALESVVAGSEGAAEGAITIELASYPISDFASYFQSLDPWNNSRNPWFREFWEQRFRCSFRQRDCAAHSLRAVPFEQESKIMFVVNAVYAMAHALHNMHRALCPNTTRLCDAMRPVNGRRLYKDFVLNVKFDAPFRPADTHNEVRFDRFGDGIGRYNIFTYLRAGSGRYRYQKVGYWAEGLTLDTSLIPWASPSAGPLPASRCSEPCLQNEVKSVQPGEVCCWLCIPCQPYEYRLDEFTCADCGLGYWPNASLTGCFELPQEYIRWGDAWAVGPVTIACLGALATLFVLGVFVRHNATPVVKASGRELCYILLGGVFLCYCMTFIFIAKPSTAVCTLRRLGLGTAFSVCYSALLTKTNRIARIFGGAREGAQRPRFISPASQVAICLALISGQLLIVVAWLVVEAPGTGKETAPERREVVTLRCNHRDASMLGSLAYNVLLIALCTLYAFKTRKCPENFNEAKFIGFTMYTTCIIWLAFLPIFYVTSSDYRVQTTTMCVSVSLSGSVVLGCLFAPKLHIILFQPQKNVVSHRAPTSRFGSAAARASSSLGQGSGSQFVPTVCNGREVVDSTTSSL

[7] = target: T2, Metabotropic glutamate receptor 2; experiment: Antagonist activity at recombinant human mGlu2 receptor expressed in hamster AV12 cells co-expressing human EAAT1 assessed as reduction of DCG-4-inhibited forskolin-stimulated cAMP formation after 20 mins by HTRF assay; format: functional, cell-based
[8] = target: T1, Metabotropic glutamate receptor 3; experiment: Displacement of [3H]-LY459477 from human mGlu3 receptor expressed in hamster AV12 cell membranes co-expressing human EAAT1 after 90 mins by liquid scintillation counting method
Target sequence in this assay (Q14832 whole entry): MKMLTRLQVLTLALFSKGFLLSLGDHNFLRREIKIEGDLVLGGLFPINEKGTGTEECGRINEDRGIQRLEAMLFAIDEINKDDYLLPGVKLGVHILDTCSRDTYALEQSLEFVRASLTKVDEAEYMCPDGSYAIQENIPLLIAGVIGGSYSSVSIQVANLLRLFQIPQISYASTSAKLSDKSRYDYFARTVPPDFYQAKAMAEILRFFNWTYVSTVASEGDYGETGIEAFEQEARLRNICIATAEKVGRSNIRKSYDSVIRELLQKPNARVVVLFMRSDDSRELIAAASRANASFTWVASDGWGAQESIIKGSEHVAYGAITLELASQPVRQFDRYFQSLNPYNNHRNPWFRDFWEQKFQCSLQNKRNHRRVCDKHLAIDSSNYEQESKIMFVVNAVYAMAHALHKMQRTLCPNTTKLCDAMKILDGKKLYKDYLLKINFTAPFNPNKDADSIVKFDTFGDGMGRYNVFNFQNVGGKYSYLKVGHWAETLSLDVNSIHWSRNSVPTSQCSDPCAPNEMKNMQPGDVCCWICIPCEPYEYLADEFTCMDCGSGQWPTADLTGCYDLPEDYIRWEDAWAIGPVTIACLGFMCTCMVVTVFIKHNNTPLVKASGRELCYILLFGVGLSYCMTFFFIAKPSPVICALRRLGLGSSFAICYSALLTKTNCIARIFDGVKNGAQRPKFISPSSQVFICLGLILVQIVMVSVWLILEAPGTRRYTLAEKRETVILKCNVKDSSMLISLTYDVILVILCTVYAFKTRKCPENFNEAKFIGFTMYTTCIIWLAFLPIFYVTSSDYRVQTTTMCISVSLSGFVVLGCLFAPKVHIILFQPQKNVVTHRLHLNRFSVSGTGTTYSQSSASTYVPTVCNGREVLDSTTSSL

## Cc1cc(CO[C@@H]2[C@H](O)[C@H]3[C@H](C(=O)O)[C@H]3[C@]2(N)C(=O)O)ccc1F
[1]
  inhibition: Active
[2]
  IC50: 85 nM
  Imax: > 94%

## N[C@]1(C(=O)O)[C@@H]2[C@@H](C(=O)O)[C@@H]2[C@H](Sc2ncc[nH]2)[C@H]1OCc1ccc(Cl)c(Cl)c1
[1]
  inhibition: Active
[3]
  ED60: 9.1 mg/kg
  MED: 10 mg/kg
[4]
  Emax: 41%
[2]
  IC50: 38.5 nM
  Imax: > 94%

## N[C@@]1(C(=O)O)C[C@@H](O)[C@H]2[C@H](C(=O)O)[C@H]21
[5]
  Ki: 166 nM

## N[C@]1(C(=O)O)[C@@H]2[C@@H](C(=O)O)[C@@H]2[C@H](F)[C@H]1OCc1ccc(Cl)c(Cl)c1
[1]
  inhibition: Active
[2]
  IC50: 71 nM
  Imax: > 94%

## COC(=O)N[C@H]1[C@H]2[C@H](C(=O)O)[C@H]2[C@](N)(C(=O)O)[C@@H]1OCc1ccc(Cl)c(Cl)c1
[1]
  inhibition: Active
[3]
  ED60: 7.95 mg/kg
  MED: 10 mg/kg
[4]
  Emax: 46%
[6]
  inhibition: Active
[7]
  IC50: 18.8 nM
  Imax: > 94%
[2]
  IC50: 20.5 nM
  Imax: > 94%

## Cn1ncnc1S[C@H]1[C@H]2[C@H](C(=O)O)[C@H]2[C@](N)(C(=O)O)[C@@H]1OCc1ccc(Cl)c(Cl)c1
[1]
  inhibition: Active
[3]
  ED60: 7.3 mg/kg
  MED: 10 mg/kg
[4]
  Emax: 47%
[6]
  inhibition: Active
[7]
  IC50: 19.9 nM
  Imax: > 94%
[2]
  IC50: 29.6 nM
  Imax: > 94%

## N[C@]1(C(=O)O)[C@@H]2[C@@H](C(=O)O)[C@@H]2[C@@H](O)[C@H]1OCc1cccc(Cl)c1Cl
[1]
  inhibition: Active
[2]
  IC50: 83.2 nM
  Imax: > 94%

## N[C@]1(C(=O)O)[C@@H]2[C@@H](C(=O)O)[C@@H]2[C@@H](O)[C@H]1OCc1ccc(Cl)c(F)c1
[1]
  inhibition: Active
[2]
  IC50: 127 nM
  Imax: > 94%

## N[C@]1(C(=O)O)[C@@H]2[C@@H](C(=O)O)[C@@H]2[C@@H](O)[C@H]1OCc1ccc(Cl)cc1
[1]
  inhibition: Active
[6]
  inhibition: Active
[7]
  IC50: 210 nM
  Imax: > 94%
[2]
  IC50: 145 nM
  Imax: > 94%

## N[C@@]1(C(=O)O)C[C@H](O)[C@H]2[C@H](C(=O)O)[C@H]21
[5]
  Ki: 230 nM

## N[C@H]1[C@H]2[C@H](C(=O)O)[C@H]2[C@](N)(C(=O)O)[C@@H]1OCc1ccc(Cl)c(Cl)c1
[1]
  inhibition: Active
[6]
  inhibition: Active
[7]
  IC50: 1130 nM
  Imax: > 94%
[2]
  IC50: 1070 nM
  Imax: > 94%

## N[C@]1(C(=O)O)[C@@H]2[C@@H](C(=O)O)[C@@H]2[C@@H](O)[C@H]1OCc1cc(Cl)ccc1Cl
[1]
  inhibition: Active
[2]
  IC50: 185 nM
  Imax: > 94%

## N[C@]1(C(=O)O)[C@@H]2[C@@H](C(=O)O)[C@@H]2[C@H](Sc2nc[nH]n2)[C@H]1OCc1ccc(Cl)c(Cl)c1
[1]
  inhibition: Active
[3]
  ED60: 2.08 mg/kg
  MED: 3 mg/kg
[4]
  Emax: 62%
[6]
  inhibition: Active
[7]
  IC50: 12.7 nM
  Imax: > 94%
[5]
  Ki: 7.43 nM
[2]
  IC50: 23.5 nM
  Imax: > 94%
[8]
  Ki: 2.7 nM

## [N-]=[N+]=N[C@H]1[C@H]2[C@H](C(=O)O)[C@H]2[C@](N)(C(=O)O)[C@@H]1OCc1ccc(Cl)c(Cl)c1
[1]
  inhibition: Active
[6]
  inhibition: Active
[7]
  IC50: 34.5 nM
  Imax: > 94%
[2]
  IC50: 54.1 nM
  Imax: > 94%

## N[C@]1(C(=O)O)[C@@H]2[C@@H](C(=O)O)[C@@H]2[C@@H](O)[C@H]1OCc1ccccc1
[1]
  inhibition: Active
[2]
  IC50: 239 nM
  Imax: > 94%

## N[C@]1(C(=O)O)[C@@H]2[C@@H](C(=O)O)[C@@H]2[C@@H](O)[C@H]1OCc1cccc(Cl)c1
[1]
  inhibition: Active
[6]
  inhibition: Active
[7]
  IC50: 280 nM
  Imax: > 94%
[2]
  IC50: 178 nM
  Imax: > 94%

## CC(=O)N[C@H]1[C@H]2[C@H](C(=O)O)[C@H]2[C@](N)(C(=O)O)[C@@H]1OCc1ccc(Cl)c(Cl)c1
[1]
  inhibition: Active
[3]
  ED60: 9.1 mg/kg
  MED: 30 mg/kg
[4]
  Emax: 41%
[6]
  inhibition: Active
[7]
  IC50: 26.1 nM
  Imax: > 94%
[2]
  IC50: 14.3 nM
  Imax: > 94%

## N[C@@]1(C(=O)O)[C@H](Cc2ccc(F)c(Cl)c2)C[C@H]2[C@H](C(=O)O)[C@H]21 (racemic)
[2]
  IC50: 76.1 nM

## N[C@]1(C(=O)O)[C@@H]2[C@@H](C(=O)O)[C@@H]2[C@@H](O)[C@H]1OCc1ccc(Cl)c(Cl)c1
[1]
  inhibition: Active
[6]
  inhibition: Active
[7]
  IC50: 169 nM
  Imax: > 94%
[5]
  Ki: 76 nM
[2]
  IC50: 153 nM
  Imax: > 94%

Source: ChEMBL document CHEMBL3868610, “Novel bicyclo[3.1.0]hexane analogs as antagonists of metabotropic glutamate 2/3 receptors for the treatment of depression” (Bioorg Med Chem Lett, 2016)
